Target: T1, PTEN (Homo sapiens, UniProt P60484)
T1 construct: host or cells: HEK-293
Assay: Immunofluorescence of endogenous PIP3 after PTEN-targeted T-REX
Type: cell-based
Conditions: T-REX HNEylation of Halo-PTEN
Procedure: (i) Transient transfection using TransIT-2020. Split HEK-293 cells in four 35 mm glass-bottom dishes. For each dish, seeding ˜4×10^5 cells in 2.0 mL total cell culture medium should result in cells that are ˜40-50% confluent after 24 h, which represents optimal cell density. Too low and too high cell density may result in excessive cell death or poor transfection efficiency respectively. Higher cell density is also not optimal for imaging.
(ii) Transfect each plate with 2000 ng of Halo-PTEN plasmid. Transfect with TransIT-2020 following the manufacturer's protocol.
(iv) Treatment of cells with T-REX™ delivery photocaged precursor, photo-uncaging and cell fixing (TIMING: 8 hours). Treat the cells with photocaged precursor as described in Section 2, Step 39A.
(v) After shining light on the sample, incubate the plates at 37° C. for 10 hours. […]
(xviii) Images were analyzed using ImageJ software (NIH). Briefly, the average green fluorescence intensity (intensity of signal due to PIP3) for each cell was determined by drawing a free hand circle around the image. This was repeated for each condition such that 50-100 cells were analyzed each time from multiple different frames. A global average of the green fluorescence intensity was calculated for each condition, then these values were plotted and analyzed using prism. […]

T1 sequence (P60484 whole entry): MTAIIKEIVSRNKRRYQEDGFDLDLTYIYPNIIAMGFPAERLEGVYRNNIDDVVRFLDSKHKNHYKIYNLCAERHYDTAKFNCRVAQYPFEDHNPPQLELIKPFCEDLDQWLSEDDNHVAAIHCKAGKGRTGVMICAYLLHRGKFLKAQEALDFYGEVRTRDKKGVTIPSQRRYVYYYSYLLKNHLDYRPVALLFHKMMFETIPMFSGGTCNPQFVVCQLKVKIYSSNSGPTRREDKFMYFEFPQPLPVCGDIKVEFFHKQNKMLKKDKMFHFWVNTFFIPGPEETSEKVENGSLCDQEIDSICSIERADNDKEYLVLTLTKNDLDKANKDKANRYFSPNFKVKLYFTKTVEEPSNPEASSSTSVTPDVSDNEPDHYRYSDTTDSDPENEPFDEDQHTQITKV

## CCCCCC(O)/C=C/C=O (stereo not shown) [HNE, 4-hydroxynonenal]
  endogenous PIP3 level: upregulation of PIP3
